By IC50 is commonly meant the concentration that gives 50% inhibition.

The values below come from US5686424A, “2-oxoethyl derivatives as immunosuppressants” (Miles Inc., priority 1995, dated 1997).

For test [1], the target named is FKBP (Homo sapiens, UniProt P62942). Nature of the test: PPIase Inhibition Assay. The class given is biochemical. The note with it: concentration of inhibitor required for 50% inhibition of enzyme activity; FKBP, substrate Succinyl-Ala-Phe-Pro-Phe-para-nitroanilide; TABLE I. The essentials: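 Rates from p-nitroaniline release at 390 nm over 90 sec, fitted first-order, were converted to % activity remaining relative to uncatalyzed and uninhibited rates, with IC50 from linear regression of V-/V+ against inhibitor level. FKBP acted on Suc-Ala-Phe-Pro-Phe-pNA with excess chymotrypsin, HEPES pH 7.8, cold buffer.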

Test [2] concerns human T-cells. Nature of the test: Suppression of Human T-Cell Proliferation Assay (PHA-stimulated, [3H]-thymidine incorporation). It counts as cell-based. Conditions: concentration inhibiting [3H]-thymidine incorporation of PHA-stimulated T-cells by 50%, 72 hours; TABLE 2; read-out: IC50. The essentials:
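Read-out is scintillation counting of [3H]-thymidine pulsed for the last 6 h of a 72 h, 37° C culture. Human T-cells, isolated from LeukoPaks by Lymphoprep and sheep-erythrocyte rosetting, were PHA-M activated (40 μg/ml stock) with compound dilutions added in duplicate wells.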
(In general: Uptake of a labelled nucleoside into DNA is a usual measure of proliferation.)

The test system of test [3] is NF-AT. Nature of the test: NF-AT Inhibition Assay Directed β-Galactosidase Expression in FGL-5 cells. The class given is cell-based. Conditions: 50% inhibition of NF-AT directed β-galactosidase activity in FGL-5 cells stimulated with phorbol dibutyrate and ionomycin; TABLE 3. The protocol: 3) NF-AT Assay Stimulation of T-cells leads to the appearance of several transcription factors, including one designated "NF-AT". These factors are involved in regulation of gene expression required for immunologic activation. Some of these transcription factors appear to have functions in a wide variety of cell types. By contrast, NF-AT is found primarily in T-cells and its role is restricted to early gene activation. […] Inhibition of NF-AT activity is measured using FGL-5 cells. FGL-5 is a cloned line of stably transfected Jurkat T-cells that contain two construct in which three tandem copies of the NF-AT DNA binding site direct transcription of both murine CD8 and the lacZ gene, encoding β-galactosidase ([…] et al., 1990, Genes & Development 4:1823). When these cells are stimulated with phorbol esters which activate protein kinase C and calcium ionophore to raise the intracellular calcium concentration, transcriptionally active NF-AT is produced. In T-cells, this normally leads to the expression of IL-2, T-cell growth factor. However, in FGL-5 cells NF-AT activation leads to the production of β-galactosidase which can be detected using an appropriate substrate. […] NF-AT Inhibition Assay Directed β-Galactosidase Expression This assay was performed essentially as described (Bierer et al., 1990, Proc. Natl. Acad. Sci. 87:9231). […] The assays were done with exponentially growing cells whose density was not greater than 0.5 million cells/ml. The cells were resuspended to 3 million cells/ml in medium and 0.1 ml was added to wells of a 96-well plate. The compounds of the present invention were dissolved in either ethanol or dimethylsulfoxide at 10 mM and […] of various dilutions in medium were added to cells in duplicate wells. Treatment controls consisted of duplicate wells containing 0.5 ml/well of either medium, ethanol or dimethylsulfoxide. The ethanol and dimethyl sulfoxide were at the same concentration as was used for the compounds. […] Phorbol dibutyrate (Sigma) and Ionomycin (Calbiochem) were dissolved at 50 μg/ml and 2 mM, respectively and stored at -70° C. […] For unstimulated cell controls, 0.5 ml/well of medium was added to duplicate wells. The plates were incubated overnight (16-18 hours) at 37° C. in a humidified atmosphere of 5% CO2 and air. β-galactosidase activity was measured as the fluorescence generated by the cleavage of 4-methyl umbelliferyl-β-D-galactoside (Sigma) at the β-galactoside bond. After overnight incubation, the cells were centrifuged at 500×g for 3 minutes in the 96-well plates and washed 3 times with PBS. […] The percent inhibition by each concentration of the compounds was calculated as: […]

Counter-ions that a name gives are not always drawn.

Chain of FKBP (P62942 whole entry): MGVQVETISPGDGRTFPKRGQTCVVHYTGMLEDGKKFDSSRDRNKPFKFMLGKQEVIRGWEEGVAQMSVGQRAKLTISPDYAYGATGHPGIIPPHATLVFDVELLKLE

With `CC[C@H](C)[C@H](NC(=O)[C@@H]1CCCN1CC(=O)OCC1(c2ccccc2)CCCCC1)C(=O)NCc1ccccc1` [Example 87, L-Isoleucine, N-[1-(2-(1-Phenyl-1-Cyclohexylmethoxy)-2-Oxoethyl)-L-Prolyl] Benzylamide], the IC50 in test [1] is over 5 µM; in test [2] it was 8 µM; in test [3], 6 µM.
For `CC[C@H](C)[C@H](NC(=O)[C@@H]1CCCN1CC(=O)OC(CN1CCOCC1)c1ccccc1)C(=O)NCc1ccccc1` (stereo partly drawn) [Example 88, L-Isoleucine, N-[1-(2-(1-Phenyl-2-(4-Morpholino)Ethoxy)-2-Oxoethyl)-L-Prolyl] Benzylamide], in that order: under 5 µM, 16 µM and 13 µM.
For `CC[C@H](C)[C@H](NC(=O)[C@@H]1CCCN1CC(=O)OC1(C)C2CC3CC(C2)CC1C3)C(=O)NCc1ccccc1` (stereo partly drawn) [Example 89, L-Isoleucine, N-[1-(2-(2-Oxy-2-Methyladamant-2-yl)-2-Oxoethyl)-L-Prolyl] Benzylamide], in that order: 0.12 µM, 8 µM and 5 µM.
On to `CC[C@H](C)[C@H](NC(=O)[C@@H]1CCCN1CC(=O)NCC12CC3CC(CC(C3)C1)C2)C(=O)NCc1ccccc1` [Example 91, L-Isoleucine, N-[1-(Adamant-1-ylmethylcarbamoylmethyl)-L-Prolyl] Benzylamide], for which the IC50 in test [1] was under 5 µM; in test [2] it was 4 µM; in test [3] it was 26 µM.
For `CC[C@H](C)[C@H](NC(=O)[C@@H]1CCCN1CC(=O)C1CCC(C(C)(C)C)CC1)C(=O)NCc1ccccc1` (stereo partly drawn) [Example 96, L-Isoleucine, N-[1-(2-(4-tert-Butylcyclohexyl)-2-Oxoethyl)-L-Prolyl] Benzylamide], in that order: under 5 µM, 8 µM and 24 µM.
For `CC[C@H](C)[C@H](NC(=O)[C@@H]1CCCN1CC(=O)C1CC2CCC1C2)C(=O)NCc1ccccc1` (stereo partly drawn) [Example 97], in that order: under 5 µM, 12 µM and 32 µM.
For `CC[C@H](C)[C@H](NC(=O)[C@@H]1CCCN1CC(=O)c1cc(OC)c(OC)c(OC)c1)C(=O)NCc1ccccc1` [Example 98, L-Isoleucine, N-[1-(2-(3,4,5-Trimethoxyphenyl)-2-Oxoethyl)-L-Prolyl] Benzylamide], in that order: under 5 µM, 7 µM and over 33 µM.
Turning to `CC[C@H](C)[C@H](NC(=O)[C@@H]1CCCN1CC(=O)C1CCc2ccccc2O1)C(=O)NCc1ccccc1` (stereo partly drawn) [Example 99, L-Isoleucine, N-[1-(2-(Chroman-2-yl)-2-Oxoethyl)-L-Prolyl] Benzylamide Hydrochloride Salt], the IC50 in test [1] is 5 µM; in test [2], over 15 µM; in test [3] it was over 15 µM.
As to `CC[C@H](C)[C@H](NC(=O)[C@@H]1CCCN1CC(=O)c1cc2ccccc2o1)C(=O)NCc1ccccc1` [Example 100, L-Isoleucine, N-[1-(2-(Benzofuran-2-yl)-2-Oxoethyl)-L-Prolyl] Benzylamide Hydrochloride Salt], the IC50 was over 5 µM in test [1], over 15 µM in test [2] and over 15 µM in test [3].
With `CC[C@H](C)[C@H](NC(=O)[C@@H]1CCCN1CC(=O)c1cccc(OC(=O)c2ccccc2)c1)C(=O)NCc1ccccc1` [Example 101, L-Isoleucine, N-[1-(2-(3-Benzoyloxyphenyl)-2-Oxoethyl)-L-Prolyl] Benzylamide], the half-inhibitory concentration (IC50) was under 5 µM in test [1], over 15 µM in test [2] and over 15 µM in test [3].
For the molecule `CC[C@H](C)[C@H](NC(=O)[C@@H]1CCCN1CC(=O)c1ccc(OC(=O)c2ccccc2)cc1)C(=O)NCc1ccccc1` [Example 102, L-Isoleucine, N-[1-(2-(4-Benzoyloxyphenyl)-2-Oxoethyl)-L-Prolyl] Benzylamide], the IC50 was 5 µM in test [1], over 15 µM in test [2] and over 15 µM in test [3].
As for `CC[C@H](C)[C@H](NC(=O)[C@@H]1CCCN1CC(=O)c1ccccc1OC(=O)c1ccccc1)C(=O)NCc1ccccc1` [Example 103, L-Isoleucine, N-[1-(2-(2-Benzoyloxyphenyl)-2-Oxoethyl)-L-Prolyl] Benzylamide], the IC50 in test [1] was under 5 µM; in test [2] it was over 15 µM; in test [3], over 15 µM.
For `CC[C@H](C)[C@H](NC(=O)[C@@H]1CCCN1CC(=O)c1cccc(Oc2ccccc2)c1)C(=O)NCc1ccccc1` [Example 104, L-Isoleucine, N-[1-(2-(3-Phenoxyphenyl)-2-Oxoethyl)-L-Prolyl] Benzylamide], the IC50 was under 5 µM in test [1], over 15 µM in test [2] and over 15 µM in test [3].
For the molecule `CC[C@H](C)[C@H](NC(=O)[C@@H]1CCCN1CC(=O)c1ccccc1Oc1ccccc1)C(=O)NCc1ccccc1` [Example 105, L-Isoleucine, N-[1-(2-(2-Phenoxyphenyl)-2-Oxoethyl)-L-Prolyl] Benzylamide], the IC50 was under 5 µM in test [1], over 15 µM in test [2] and over 15 µM in test [3].
In the case of `CCOc1cc(C(=O)CN2CCC[C@H]2C(=O)N[C@H](C(=O)NCc2ccccc2)[C@@H](C)CC)cc(OCC)c1OCC` [Example 106, L-Isoleucine, N-[1-(2-(3,4,5-Triethoxyphenyl)-2-Oxoethyl)-L-Prolyl] Benzylamide], the IC50 is under 5 µM in test [1], over 15 µM in test [2] and over 15 µM in test [3].
Turning to `CC[C@H](C)[C@H](NC(=O)[C@@H]1CCCN1CC(=O)c1ccc2c(c1)OCO2)C(=O)NCc1ccccc1` [Example 107, L-Isoleucine, N-[1-(2-(Benzo[1,3]dioxol-5-yl)-2-Oxoethyl)-L-Prolyl] Benzylamide], the half-maximal inhibitory concentration (IC50) in test [1] was under 5 µM; in test [2], 1 µM; in test [3], 0.6 µM.
With `CC[C@H](C)[C@H](NC(=O)[C@@H]1CCCN1CC(=O)c1ccc(OCCOc2ccccc2)cc1)C(=O)NCc1ccccc1` [Example 108, L-Isoleucine, N-[1-{2-Oxo-2-[4-(2-Phenoxyethoxy)-Phenyl]-Ethyl}-L-Prolyl] Benzylamide], the IC50 was under 5 µM in test [1], over 15 µM in test [2] and over 15 µM in test [3].
On to `CC[C@H](C)[C@H](NC(=O)[C@@H]1CCCN1CC(=O)c1ccc(Oc2ccccc2)cc1)C(=O)NCc1ccccc1` [Example 109, L-Isoleucine, N-[1-(2-(4-Phenoxyphenyl)-2-Oxoethyl)-L-Prolyl] Benzylamide], for which the IC50 is under 5 µM in test [1], 5 µM in test [2] and over 15 µM in test [3].
For `CC[C@H](C)[C@H](NC(=O)[C@@H]1CCCN1CC(=O)c1c(OC)cc(OC)cc1OC)C(=O)NCc1ccccc1` [Example 110, L-Isoleucine, N-[1-(2-(2,4,6-Trimethoxyphenyl)-2-Oxoethyl)-L-Prolyl] Benzylamide], in that order: under 5 µM, 6 µM and over 15 µM.
Take `CC[C@H](C)[C@H](NC(=O)[C@@H]1CCCN1CC(=O)c1cccc(OC)c1OC)C(=O)NCc1ccccc1` [Example 111, L-Isoleucine, N-[1-(2-(2,3-Dimethoxyphenyl)-2-Oxoethyl)-L-Prolyl] Benzylamide]: the concentration for half-maximal inhibition (IC50) in test [1] is under 5 µM; in test [2] it was 7 µM; in test [3], over 15 µM.
For `CC[C@H](C)[C@H](NC(=O)[C@@H]1CCCN1CC(=O)c1c(OC)cccc1OC)C(=O)NCc1ccccc1` [Example 112, L-Isoleucine, N-[1-(2-(2,6-Dimethoxyphenyl)-2-Oxoethyl)-L-Prolyl] Benzylamide], in that order: under 5 µM, 7 µM and over 15 µM.
